Consider 32 compounds from US8653263B2 (Janssen Pharmaceutica, priority 2009, dated 2014).

Structures are written as SMILES. pKi: −log10 of the molar value.

The term pKi denotes the negative decadic logarithm of the Ki, by convention in mol/L.

The target of this experiment is human orexin-2 receptor (Homo sapiens (Human), UniProt O43614). In words: Human orexin 2 receptor radioligand binding ([3H]-EMPA competition). To be noted: HEK293 cells stably expressing human orexin-2 receptor; [3H]-EMPA 5 nM final; apparent Ki=IC50/(1+C/Kd), Kd=2 nM; read-out: OR 2 Ki.
human orexin-2 receptor, sequence (O43614 whole entry): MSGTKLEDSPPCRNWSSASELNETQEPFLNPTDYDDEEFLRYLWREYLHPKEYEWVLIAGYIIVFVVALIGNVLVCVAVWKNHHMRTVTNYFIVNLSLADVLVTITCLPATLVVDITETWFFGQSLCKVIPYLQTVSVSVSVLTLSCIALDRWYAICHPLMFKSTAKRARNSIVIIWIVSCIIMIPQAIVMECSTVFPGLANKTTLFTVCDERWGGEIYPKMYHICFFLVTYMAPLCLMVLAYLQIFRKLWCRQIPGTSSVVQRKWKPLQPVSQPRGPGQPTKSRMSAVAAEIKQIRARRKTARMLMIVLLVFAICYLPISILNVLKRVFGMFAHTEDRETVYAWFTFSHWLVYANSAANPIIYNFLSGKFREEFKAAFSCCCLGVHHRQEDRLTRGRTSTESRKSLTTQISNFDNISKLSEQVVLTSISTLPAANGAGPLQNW
Turning to `Cc1cc(C)nc(N2CC3CN(C(=O)c4ccccc4Br)CC3C2)n1` (centres unmarked) [Example 82, 2-[(2-Bromophenyl)carbonyl]-5-(4,6-dimethylpyrimidin-2-yl)octahydropyrrolo[3,4-c]pyrrole], the pKi is 6.42.

With `COc1cc(OC)nc(N2CC3CN(C(=O)c4ccccc4-n4nccn4)CC3C2)n1` (centres unmarked) [Example 84, 2-(4,6-Dimethoxypyrimidin-2-yl)-5-{[2-(2H-1,2,3-triazol-2-yl)phenyl]carbonyl}octahydropyrrolo[3,4-c]pyrrole], the pKi was 7.28.

For the compound `O=C(c1ccccc1-c1nnc[nH]1)N1CC2CN(c3cnc4ccccc4n3)CC2C1` (centres unmarked) [Example 85, 2-[5-{[2-(4H-1,2,4-Triazol-3-yl)phenyl]carbonyl}hexahydropyrrolo[3,4-c]pyrrol-2(1H)-yl]quinoxaline], the negative-log Ki (pKi) is 7.01.

`O=C(c1ccccc1-c1nnc[nH]1)N1CC2CN(c3nc4ccccc4o3)CC2C1` (centres unmarked) [Example 86, 2-[5-{[2-(4H-1,2,4-Triazol-3-yl)phenyl]carbonyl}hexahydropyrrolo[3,4-c]pyrrol-2(1H)-yl]-1,3-benzoxazole]: the pKi was 6.59.

In the case of `Cc1ccnc(N2CC3CN(C(=O)c4ccccc4-c4nnc[nH]4)CC3C2)n1` (centres unmarked) [Example 87, 2-(4-Methylpyrimidin-2-yl)-5-{[2-(4H-1,2,4-triazol-3-yl)phenyl]carbonyl}octahydro-pyrrolo[3,4-c]pyrrole], the pKi is 6.29.

Turning to `CCOc1ccccc1C(=O)N1CC2CN(c3nc(C)cc(C)n3)CC2C1` (centres unmarked) [Example 88, 2-(4,6-Dimethylpyrimidin-2-yl)-5-[(2-ethoxyphenyl)carbonyl]octahydropyrrolo[3,4-c]pyrrole], the negative-log Ki (pKi) is 7.12.

As for `Cc1cc(C)nc(N2CC3CN(C(=O)c4ccc(F)cc4C(F)(F)F)CC3C2)n1` (centres unmarked) [Example 89, 2-(4,6-Dimethylpyrimidin-2-yl)-5-{[4-fluoro-2-(trifluoromethyl)phenyl]carbonyl}octahydropyrrolo[3,4-c]pyrrole], the pKi is 6.34.

Turning to `Cc1cc(C)nc(N2CC3CN(C(=O)c4ccc(F)c5ccccc45)CC3C2)n1` (centres unmarked) [Example 90, 2-(4,6-Dimethylpyrimidin-2-yl)-5-[(4-fluoronaphthalen-1-yl)carbonyl]octahydro-pyrrolo[3,4-c]pyrrole], the pKi is 7.42.

Consider `Cc1cc(C)nc(N2CC3CN(C(=O)c4ccccc4C(C)C)CC3C2)n1` (centres unmarked) [Example 91, 2-(4,6-Dimethylpyrimidin-2-yl)-5-{[2-(1-methylethyl)phenyl]carbonyl}octahydro-pyrrolo[3,4-c]pyrrole], for which the pKi is 6.27.

In the case of `COc1cccc(C(=O)N2CC3CN(c4nc(C)cc(C)n4)CC3C2)c1C` (centres unmarked) [Example 92, 2-(4,6-Dimethylpyrimidin-2-yl)-5-[(3-methoxy-2-methylphenyl)carbonyl]octahydro-pyrrolo[3,4-c]pyrrole], the pKi is 6.12.

As for `Cc1cc(C)nc(N2CC3CN(C(=O)c4cccc5ccccc45)CC3C2)n1` (centres unmarked) [Example 93, 2-(4,6-Dimethylpyrimidin-2-yl)-5-(naphthalen-1-ylcarbonyl)octahydropyrrolo[3,4-c]pyrrole], the pKi was 7.19.

On to `O=C(c1ccccc1-c1nnc[nH]1)N1CC2CN(c3nc4ccccc4nc3C(F)(F)F)CC2C1` (centres unmarked) [Example 94, 2-[5-{[2-(4H-1,2,4-Triazol-3-yl)phenyl]carbonyl}hexahydropyrrolo[3,4-c]pyrrol-2(1H)-yl]-3-(trifluoromethyl)quinoxaline], for which the negative-log Ki (pKi) was 6.26.

Take `Cc1nc2ccccc2nc1N1CC2CN(C(=O)c3ccccc3-c3nnc[nH]3)CC2C1` (centres unmarked) [Example 95, 2-Methyl-3-[5-{[2-(4H-1,2,4-triazol-3-yl)phenyl]carbonyl}hexahydropyrrolo[3,4-c]pyrrol-2(1H)-yl]quinoxaline]: the pKi was 6.67.

Take `Cc1cc(N2CC3CN(C(=O)c4ccccc4-c4nnc[nH]4)CC3C2)nc(C(F)(F)F)n1` (centres unmarked) [Example 96, 2-[6-Methyl-2-(trifluoromethyl)pyrimidin-4-yl]-5-{[2-(4H-1,2,4-triazol-3-yl)phenyl]carbonyl}octahydropyrrolo[3,4-c]pyrrole]: the negative-log Ki (pKi) is 7.17.

On to `Cc1cc(N2CC3CN(C(=O)c4ccccc4-n4nccn4)CC3C2)nc(C(F)(F)F)n1` (centres unmarked) [Example 97, 2-[6-Methyl-2-(trifluoromethyl)pyrimidin-4-yl]-5-{[2-(2H-1,2,3-triazol-2-yl)phenyl]carbonyl}octahydropyrrolo[3,4-c]pyrrole], for which the pKi is 7.60.

Take `Cc1cc(N2CC3CN(C(=O)c4c(F)cccc4-n4nccn4)CC3C2)nc(C(F)(F)F)n1` (centres unmarked) [Example 98, 2-{[2-Fluoro-6-(2H-1,2,3-triazol-2-yl)phenyl]carbonyl}-5-[6-methyl-2-(trifluoromethyl)pyrimidin-4-yl]octahydropyrrolo[3,4-c]pyrrole]: the pKi was 7.55.

Consider `Cc1cc(N2CC3CN(C(=O)c4ccc(F)cc4-n4nccn4)CC3C2)nc(C(F)(F)F)n1` (centres unmarked) [Example 99, 2-{[4-Fluoro-2-(2H-1,2,3-triazol-2-yl)phenyl]carbonyl}-5-[6-methyl-2-(trifluoromethyl)pyrimidin-4-yl]octahydropyrrolo[3,4-c]pyrrole], for which the pKi is 7.82.

For `Cc1ccc(-n2nccn2)c(C(=O)N2CC3CN(c4cncc(C)n4)CC3C2)c1` (centres unmarked) [Example 100, 2-(6-Methylpyrazin-2-yl)-5-{[5-methyl-2-(2H-1,2,3-triazol-2 yl)phenyl]carbonyl}octahydropyrrolo[3,4-c]pyrrole], the negative logarithm of the Ki (pKi) is 6.62.

`Cc1cnc(C)c(N2CC3CN(C(=O)c4c(F)cccc4-n4nccn4)CC3C2)n1` (centres unmarked) [Example 101, 2-(3,6-Dimethylpyrazin-2-yl)-5-{[2-fluoro-6-(2H-1,2,3-triazol-2-yl)phenyl]carbonyl}octahydropyrrolo[3,4-c]pyrrole]: the pKi was 7.32.

As to `Cc1ccc(-c2ncccn2)c(C(=O)N2CC3CN(c4nc(C)cc(C)n4)CC3C2)c1` (centres unmarked) [Example 102, 2-(4,6-Dimethylpyrimidin-2-yl)-5-[(5-methyl-2-pyrimidin-2-ylphenyl)carbonyl]octahydropyrrolo[3,4-c]pyrrole], the pKi is 7.77.

Take `Cc1ccc(-c2ncccn2)c(C(=O)N2CC3CN(c4nc(C)cnc4C)CC3C2)c1` (centres unmarked) [Example 103, 2-(3,6-Dimethylpyrazin-2-yl)-5-[(5-methyl-2-pyrimidin-2-ylphenyl)carbonyl]octahydropyrrolo[3,4-c]pyrrole]: the pKi is 7.42.

As to `Cc1cnc(C)c(N2CC3CN(C(=O)c4ccc(F)cc4-n4nccn4)CC3C2)n1` (centres unmarked) [Example 104, 2-(3,6-Dimethylpyrazin-2-yl)-5-{[4-fluoro-2-(2H-1,2,3-triazol-2-yl)phenyl]carbonyl}octahydropyrrolo[3,4-c]pyrrole], the pKi was 7.38.

As for `CN(C)c1nc(N2CC3CN(C(=O)c4c(F)cccc4-n4nccn4)CC3C2)cc(C(F)(F)F)n1` (centres unmarked) [Example 106, 4-[5-{[2-Fluoro-6-(2H-1,2,3-triazol-2-yl)phenyl]carbonyl}hexahydropyrrolo[3,4-c]pyrrol-2(1H)-yl]-N,N-dimethyl-6-(trifluoromethyl)pyrimidin-2-amine], the pKi is 7.59.

`Cc1ccc(-c2ncccn2)c(C(=O)N2CC3CN(c4cc(C(F)(F)F)nc(N(C)C)n4)CC3C2)c1` (centres unmarked) [Example 108, N,N-Dimethyl-4-{5-[(5-methyl-2-pyrimidin-2-ylphenyl)carbonyl]hexahydropyrrolo[3,4-c]pyrrol-2(1H)-yl}-6-(trifluoromethyl)pyrimidin-2-amine]: the pKi is 7.24.

`CN(C)c1nc(N2CC3CN(C(=O)c4cc(F)ccc4-c4ncccn4)CC3C2)cc(C(F)(F)F)n1` (centres unmarked) [Example 109, 4-{5-[(5-Fluoro-2-pyrimidin-2-ylphenyl)carbonyl]hexahydropyrrolo[3,4-c]pyrrol-2(1H)-yl}-N,N-dimethyl-6-(trifluoromethyl)pyrimidin-2-amine]: the pKi was 7.34.

Turning to `CN(C)c1nc(N2CC3CN(C(=O)c4cc(F)ccc4-n4nccn4)CC3C2)cc(C(F)(F)F)n1` (centres unmarked) [Example 110, 4-[5-{[5-Fluoro-2-(2H-1,2,3-triazol-2-yl)phenyl]carbonyl}hexahydropyrrolo[3,4-c]pyrrol-2(1H)-yl]-N,N-dimethyl-6-(trifluoromethyl)pyrimidin-2-amine], the negative-log Ki (pKi) is 7.28.

Regarding `CN(C)c1nc(N2CC3CN(C(=O)c4ccc(F)cc4-n4nccn4)CC3C2)cc(C(F)(F)F)n1` (centres unmarked) [Example 111, [5-(2-Dimethylamino-6-trifluoromethyl-pyrimidin-4-yl)-hexahydro-pyrrolo[3,4-c]pyrrol-2-yl]-(4-fluoro-2-[1,2,3]triazol-2-yl-phenyl)-methanone], the negative-log Ki (pKi) is 7.55.

Turning to `Cc1ccc(-c2ncccn2)c(C(=O)N2CC3CN(c4cc(C)nc(C(F)(F)F)n4)CC3C2)c1` (centres unmarked) [Example 112, 2-[(5-Methyl-2-pyrimidin-2-ylphenyl)carbonyl]-5-[6-methyl-2-(trifluoromethyl)pyrimidin-4-yl]octahydropyrrolo[3,4-c]pyrrole], the pKi was 7.02.

Turning to `O=C(c1cc(F)ccc1-c1ncccn1)N1CC2CN(c3nccc(-c4ccccc4)n3)CC2C1` (centres unmarked) [Example 113, 2-[(5-Fluoro-2-pyrimidin-2-ylphenyl)carbonyl]-5-(4-phenylpyrimidin-2-yl)octahydropyrrolo[3,4-c]pyrrole], the pKi is 7.30.

As to `Cc1cc(N2CC3CN(C(=O)c4cc(F)ccc4-n4nccn4)CC3C2)nc(C(F)(F)F)n1` (centres unmarked) [Example 114, 2-{[5-Fluoro-2-(2H-1,2,3-triazol-2-yl)phenyl]carbonyl}-5-[6-methyl-2-(trifluoromethyl)pyrimidin-4-yl]octahydropyrrolo[3,4-c]pyrrole], the negative-log Ki (pKi) was 6.65.

Turning to `Cc1cc(N2CC3CN(C(=O)c4cc(F)ccc4-n4nccn4)CC3C2)nc(C)n1` (centres unmarked) [Example 115, [5-(2,6-Dimethyl-pyrimidin-4-yl)-hexahydro-pyrrolo[3,4-c]pyrrol-2-yl]-(5-fluoro-2-[1,2,3]triazol-2-yl-phenyl)-methanone], the negative logarithm of the Ki (pKi) was 5.30.

Take `CN(C)c1nc(N2CC3CN(C(=O)c4c(F)cccc4-c4ncccn4)CC3C2)cc(C(F)(F)F)n1` (centres unmarked) [Example 116, 4-{5-[(2-Fluoro-6-pyrimidin-2-ylphenyl)carbonyl]hexahydropyrrolo[3,4-c]pyrrol-2(1H)-yl}-N,N-dimethyl-6-(trifluoromethyl)pyrimidin-2-amine]: the pKi was 7.66.
